According to patent US8173695B2, “Kappa selective opioid receptor antagonist” (Eli Lilly and Company, priority 2008, dated 2012):

Key:
Format in all cases: in vivo
Male NIH-Swiss mice = assay: Mouse forced swim test; conditions: for immobility in mouse forced swim test, Mean: 60 min
Description: This test evaluates the effect of test compound on mice mobility as a measure of antidepressant effect. The less immobility compared to vehicle, the more pronounced the antidepressant-like effect.
Male, NIH-Swiss mice (25-30 g) (Harlan Sprague-Dawley, Indianapolis, Ind., USA) are housed in a vivarium for at least one week prior to use with water and rodent chow freely available during this acclimation period. Animals are removed from the vivarium to the testing area in their home cages and allowed to adapt to the new environment for at least one hour before testing.
Mice are placed in clear plastic cylinders (diameter: 10 cm; height: 25 cm) filled with 6 cm of water (22-25° C.) for six minutes. The duration of immobility during the last four minutes of the six minutes test period is scored. A mouse is recorded as immobile when floating motionless or making only those movements necessary to keep its head above water.
The test compound is administered p.o. 1 hour prior to testing at 1.0 mg/kg, 3.0 mg/kg and 10.0 mg/kg, n of 8 per group in a vehicle of 5 ml of sterile water and 30 ml of diluted (10×) lactic acid. Imipramine is evaluated as a positive control, 15 mg/kg: p, 30 min. prior to testing n of 4.
A second study is carried out evaluating 1 and 3 mg/kg doses of the compound of Example 1A alone and in combination with 5 mg/kg of imipramine. Imipramine alone is evaluated at 5 and 15 mg/kg doses and a vehicle control is included in the study. For the combination studies, the compound of Example 1A is administered p.o. 30 minutes prior to administration of imipramine i.p. and the test initiated 30 minutes following imipramine administration. An n of 8 per group is evaluated for all groups. For the evaluations of the compound of Example 1A alone, testing is initiated 60 minutes following administration and testing of imipramine only treated animals is initiated 30 minutes following administration.

mu receptors (striatum) = target: T1, mu receptors (striatum) (Rattus norvegicus, UniProt P33535); assay: Opioid receptor occupancy (RO) in rat brain, tracer naltrexone
T1 construct: from tissue; host or cells: striatum of living Sprague Dawley rats

P rats = assay: P rat progressive ratio responding for ethanol; conditions: 10 mg/kg p.o. 60 min prior to testing, p<0.05 versus vehicle
Description: This test assesses the motivation to work for access to ethanol in P rats following ethanol abstinence. This animal model simulates ethanol craving.
Female P rats (Indiana University Medical Center, Indianapolis, Ind., USA) are pair-housed in an environmentally controlled facility and maintained on a 12 h light/dark cycle (lights on at 0600 hours).
Compounds are solubilized in sterile water by the dropwise addition of 85% lactic acid, mixed freshly prior to use, and administered in a volume of 1 mL/kg. Unless otherwise stated, compounds are administered p.o. 60 min prior to the experimental session. Doses are assigned using a counterbalanced, within-subject design (n=8-11 per experiment).
In order to reduce novelty-induced avoidance of ethanol (EtOH), the water bottle on the homecage is replaced with a bottle containing 15% EtOH (v/v; Ancare, Bellmore, N.Y.) for two days prior to operant training. Throughout the rest of the experiment, rats are allowed ad libitum access to water and standard laboratory chow in the homecage.
Daily 60-min sessions are conducted in standard rat operant chambers, housed within sound-attenuating chambers (MED Associates, Inc., St. Albans, Vt., USA). The 0.5 cm diameter stainless steel bars of the floor grid of the operant chambers are positioned approximately 1.5 cm apart. Two retractable operant levers in each operant chamber are located approximately 15 cm above the grid floor and 13 cm apart. A recessed trough is located in the space between the levers, through which a dipper cup (0.1 mL capacity) is raised to deliver response-contingent ethanol (15% EtOH, v/v). Upon a reinforced response, a stimulus light is illuminated during the 4-sec dipper cup access. Operation of the stimuli and behavioral responses are controlled and recorded by personal computer for offline analysis. At the end of each session, all stimuli are turned off and levers are retracted.
Rats are trained to press a lever for EtOH reinforcement. Initially, responses on either lever are considered correct responses and are rewarded with reinforcement. […]

T1 sequence (P33535 whole entry): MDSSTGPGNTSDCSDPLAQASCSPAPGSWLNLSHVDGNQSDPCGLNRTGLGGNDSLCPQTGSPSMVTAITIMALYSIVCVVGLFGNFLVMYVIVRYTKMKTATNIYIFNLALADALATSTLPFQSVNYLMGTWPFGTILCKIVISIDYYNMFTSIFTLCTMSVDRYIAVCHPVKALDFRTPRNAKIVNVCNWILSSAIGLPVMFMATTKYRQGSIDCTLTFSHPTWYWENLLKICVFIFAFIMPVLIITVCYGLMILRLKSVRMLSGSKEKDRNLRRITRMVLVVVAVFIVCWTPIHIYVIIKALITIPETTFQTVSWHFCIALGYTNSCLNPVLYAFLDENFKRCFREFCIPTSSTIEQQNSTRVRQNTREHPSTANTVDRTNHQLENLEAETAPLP

ED50 (mu receptors (striatum); oral): > 30 mg/kg
mu receptor occupancy (mu receptors (striatum); oral doses up to 30 mg/kg): no significant occupancy
Structure (SMILES): Cc1cc(C)cc([C@@H]2CCCN2Cc2ccc(Oc3ccc(C(N)=O)cc3F)cc2)c1 (single isomer, unassigned) [Example 1A]
immobility in mouse forced swim test, Mean (Male NIH-Swiss mice; Example 1A 1 mg/kg p.o.): 151.53 s
immobility in mouse forced swim test, Mean (Male NIH-Swiss mice; Example 1A 3 mg/kg p.o.): 172.02 s
antidepressant-like activity (immobility), in words (Male NIH-Swiss mice; first study, 10.0 mg/kg p.o. 1 hour prior to testing, p<0.05 versus vehicle, Dunnett's test): demonstrates antidepressant-like activity
breakpoint (P rats): reduced
number of active lever responses (P rats): reduced
quantity of ethanol consumed (P rats): reduced
